System: mammalian L-929 cells
Format: cell-based
Method: CCIC Huatongwei International Inspection (Suzhou) Co., Ltd. was entrusted to test the potential cytotoxic effect of a recombinant collagen M4 using mammalian L-929 cells cultured in vitro in accordance with method requirements of GB/T16886.5-2017. A test sample and a control sample were placed in a MEM medium including a 10% fetal bovine serum, and extracted in a 37°C incubator for 24 h. After the end of extraction, a cell medium is removed from ta 96-well plate (10^4 cells/well) cultured for 24 h, replaced with the corresponding extraction liquid, and cultured in a cell culture incubator (37°C, 5% CO2, humidity >90% ) for 24 h. After the end of culture, the morphology and lysis of a cell was observed under a microscope. The cytotoxicity value of a test sample was measured using a MTT method. […] After incubation for 24 h, the cell morphology of the extraction liquid with a 100% concentration of the test sample was basically intact, and a cell viability value was 83.6%. The recombinant collagen M4 had no potential cytotoxic effect under the cytotoxicity test conditions of a MTT method.

Question: For CCN(CC)C(=S)[S-].CCN(CC)C(=S)[S-].[Zn+2] [ZDEC], which cytotoxic effect is on record?
Answer: severe cytotoxic reaction
